Data reported in patent publication US9980943B2, “Methods of treating muscular dystrophy” (BOARD OF REGENTS OF THE NEVADA SYSTEM OF HIGHER EDUCATION, …, priority 2013, dated 2018).

What was measured:
Format in all cases: cell-based, mouse
[1] = test system: α7 integrin (LacZ reporter in α7βgal+/− myoblasts); assay: Myoblast α7+/LacZ integrin FDG assay (Burkin assay in myoblasts, 96-well); settings: α7+/LacZ myoblasts, 96-well
[2] = test system: α7 integrin (LacZ reporter in α7+/LacZ myotubes); assay: Myotube α7 integrin FDG assay (Burkin assay in myotubes, 96-well); settings: myotubes
[3] = test system: β-galactosidase in CMV-LacZ C2C12 myotubes; assay: CMV-LacZ secondary screen in C2C12 myotubes (β-Gal stabilizing assay); settings: for CMV-LACZ in Myotubes (β-galactosidase activity relative to DMSO): CMV-LacZ C2C12 myotubes, 96-well format; for CMV-LACZ in Myotubes, signal relative to DMSO: C2C12 CMV-LacZ myotubes, fold relative to DMSO
Method in brief: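 Stable CMV-LacZ C2C12 clone; six-point curve 0.5–40 μM; duplicates.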

| SMILES | Burkin Assay in Myoblasts, value relative to DMSO ([1]; 0.5 uM) | Burkin Assay in Myoblasts, value relative to DMSO ([1]; 1 uM) | Burkin Assay in Myoblasts, value relative to DMSO ([1]; 5 uM) | Burkin Assay in Myoblasts, value relative to DMSO ([1]; 10 uM) | Burkin Assay in Myoblasts, signal relative to DMSO ([1]; 0.5 uM) | Burkin Assay in Myoblasts, signal relative to DMSO ([1]; 1 uM) | Burkin Assay in Myoblasts, signal relative to DMSO ([1]; 5 uM) | Burkin Assay in Myoblasts, signal relative to DMSO ([1]; 10 uM) | Burkin Assay in Myoblasts, signal relative to DMSO ([1]; 20 uM) | Burkin Assay in Myoblasts, signal relative to DMSO ([1]; 40 uM) | Burkin Assay in Myotubes, α7 integrin LacZ reporter signal relative to DMSO ([2]; 0.5 uM) | Burkin Assay in Myotubes, α7 integrin LacZ reporter signal relative to DMSO ([2]; 1 uM) | Burkin Assay in Myotubes, α7 integrin LacZ reporter signal relative to DMSO ([2]; 5 uM) | Burkin Assay in Myotubes, α7 integrin LacZ reporter signal relative to DMSO ([2]; 10 uM) | Burkin Assay in Myotubes, α7 integrin LacZ reporter signal relative to DMSO ([2]; 20 uM) | Burkin Assay in Myotubes, α7 integrin LacZ reporter signal relative to DMSO ([2]; 40 uM) | CMV-LACZ in Myotubes, signal relative to DMSO ([3]; 5 uM) | CMV-LACZ in Myotubes, signal relative to DMSO ([3]; 10 uM) | CMV-LACZ in Myotubes, signal relative to DMSO ([3]; 20 uM) | CMV-LACZ in Myotubes, signal relative to DMSO ([3]; 40 uM) | further results |
| --- | --- | --- | --- | --- | --- | --- | --- | --- | --- | --- | --- | --- | --- | --- | --- | --- | --- | --- | --- | --- | --- |
| COc1ccccc1OCC(=O)Nc1cc2c(cc1C(=O)O)OCCCO2 [MLS001177045-01] | 0.8463 | 1.032 | 1.0025 | 1.0259 | – | – | – | – | – | – | – | – | – | – | – | – | – | – | – | – | Burkin Assay in Myoblasts, value relative to DMSO ([1]; 20 uM): 1.031; Burkin Assay in Myoblasts, value relative to DMSO ([1]; 40 uM): 0.9569; Burkin Assay in Myotubes (signal relative to DMSO) ([2]; 0.5 uM): 1.047; Burkin Assay in Myotubes (signal relative to DMSO) ([2]; 1 uM): 0.8145; Burkin Assay in Myotubes (signal relative to DMSO) ([2]; 5 uM): 1.024; Burkin Assay in Myotubes (signal relative to DMSO) ([2]; 10 uM): 1.0851; Burkin Assay in Myotubes (signal relative to DMSO) ([2]; 20 uM): 1.11; Burkin Assay in Myotubes (signal relative to DMSO) ([2]; 40 uM): 0.9678; CMV-LACZ in Myotubes (β-galactosidase activity relative to DMSO) ([3]; 5 uM): 0.9238; CMV-LACZ in Myotubes (β-galactosidase activity relative to DMSO) ([3]; 10 uM): 1.11; CMV-LACZ in Myotubes (β-galactosidase activity relative to DMSO) ([3]; 20 uM): 1.058; CMV-LACZ in Myotubes (β-galactosidase activity relative to DMSO) ([3]; 40 uM): 1.118 |
| CCCCNC(=O)CSc1nnc(Cc2ccc(Cl)c(Cl)c2)c(=O)[nH]1 [MLS001177259-01] | – | – | – | – | 0.9606 | 0.9896 | 0.9735 | 0.9165 | 0.7694 | 0.7773 | 0.948 | 1.053 | 0.9988 | 1.044 | 0.8187 | 0.9237 | 0.9462 | 0.7316 | 0.8543 | 1.1 | – |
| CS(=O)(=O)c1ccc(Cl)c(NC(=O)CSc2nncn2-c2ccccc2)c1 [MLS001177364-01] | – | – | – | – | 1.082 | 0.9869 | 0.9655 | 0.9015 | 1.005 | 0.8386 | 1.036 | 0.9519 | 1.235 | 1.213 | 1.125 | 0.6717 | 1.262 | 0.9578 | 1.053 | 0.9743 | – |
| Cc1ccccc1C(=O)Nc1scc(-c2ccc(Br)cc2)c1C(=O)O [MLS001179267-01] | 0.983 | 1.031 | 0.9797 | 0.9902 | – | – | – | – | – | – | – | – | – | – | – | – | 0.9091 | 0.8244 | 0.6141 | 0.5554 | Burkin Assay in Myoblasts, value relative to DMSO ([1]; 20 uM): 0.9305; Burkin Assay in Myoblasts, value relative to DMSO ([1]; 40 uM): 0.95; Burkin Assay in Myotubes (signal relative to DMSO) ([2]; 0.5 uM): 0.947; Burkin Assay in Myotubes (signal relative to DMSO) ([2]; 1 uM): 0.8787; Burkin Assay in Myotubes (signal relative to DMSO) ([2]; 5 uM): 0.8908; Burkin Assay in Myotubes (signal relative to DMSO) ([2]; 10 uM): 0.559; Burkin Assay in Myotubes (signal relative to DMSO) ([2]; 20 uM): 0.8589; Burkin Assay in Myotubes (signal relative to DMSO) ([2]; 40 uM): 0.5111 |
| COc1ccccc1C(=O)NCCOc1ccc(C(C)(C)C)cc1 [MLS001179624-01] | – | – | – | – | 0.993 | 0.9963 | 0.9515 | 0.9314 | 0.879 | 0.8828 | 0.9052 | 0.9709 | 1.048 | 1.104 | 0.8903 | 0.2183 | 0.8604 | 0.8788 | 0.452 | 0.4965 | – |
| CN(C)C1(CN=Cc2cc(Cl)cc([N+](=O)[O-])c2O)CCCCC1 [MLS001179695-01] | – | – | – | – | 1.033 | 0.9441 | 0.8752 | 0.9871 | 0.8923 | 0.8068 | 1.053 | 0.949 | 1.199 | 0.9922 | 0.9298 | 0.8546 | 1.183 | 1.095 | 1.175 | 1.047 | – |
| CN(C)CCNc1ncnc2sc(-c3ccccc3)cc12 [MLS001179717-01] | – | – | – | – | 0.912 | 0.864 | 0.8357 | 0.6794 | 0.3052 | 0.05093 | 0.8788 | 1.027 | 0.744 | 0.6812 | 0.5137 | 0.2663 | 1.084 | 0.8133 | 0.5748 | 0.4829 | – |
| CC(C)(CC(=O)O)CC(=O)N1CCCN(c2nccc(C(F)(F)F)n2)CC1 [MLS001181671-01] | 1.052 | 0.965 | 0.8759 | 0.8638 | – | – | – | – | – | – | – | – | – | – | – | – | 0.8803 | 0.9201 | 1.03 | 0.9377 | Burkin Assay in Myoblasts, value relative to DMSO ([1]; 20 uM): 0.8113; Burkin Assay in Myoblasts, value relative to DMSO ([1]; 40 uM): 0.891; Burkin Assay in Myotubes (signal relative to DMSO) ([2]; 0.5 uM): 1.071; Burkin Assay in Myotubes (signal relative to DMSO) ([2]; 1 uM): 0.9095; Burkin Assay in Myotubes (signal relative to DMSO) ([2]; 5 uM): 1.337; Burkin Assay in Myotubes (signal relative to DMSO) ([2]; 10 uM): 1.22; Burkin Assay in Myotubes (signal relative to DMSO) ([2]; 20 uM): 0.9854; Burkin Assay in Myotubes (signal relative to DMSO) ([2]; 40 uM): 0.9878 |
| Oc1c(Br)cc(Br)cc1CNc1cccc2cccnc12 [MLS001183429-01] | – | – | – | – | 0.7592 | 0.6652 | 0.7821 | 0.7373 | 0.5666 | 0.3329 | 0.8042 | 0.823 | 0.8557 | 0.733 | 0.4076 | 0.2629 | 0.8436 | 0.944 | 0.9105 | 0.5809 | – |
| CCOc1ccc(-n2c(C)c(C(=O)O)c3cc(OC)ccc32)cc1 [MLS001194551-01] | 1.096 | 1.205 | 1.115 | 1.297 | – | – | – | – | – | – | – | – | – | – | – | – | 0.8273 | 0.9459 | 1.047 | 0.7809 | Burkin Assay in Myoblasts, value relative to DMSO ([1]; 20 uM): 1.176; Burkin Assay in Myoblasts, value relative to DMSO ([1]; 40 uM): 1.392; Burkin Assay in Myotubes (signal relative to DMSO) ([2]; 0.5 uM): 1.0169; Burkin Assay in Myotubes (signal relative to DMSO) ([2]; 1 uM): 1.01; Burkin Assay in Myotubes (signal relative to DMSO) ([2]; 5 uM): 1.043; Burkin Assay in Myotubes (signal relative to DMSO) ([2]; 10 uM): 1.094; Burkin Assay in Myotubes (signal relative to DMSO) ([2]; 20 uM): 1.209; Burkin Assay in Myotubes (signal relative to DMSO) ([2]; 40 uM): 1.281 |
